The numbers were not newly measured in patent US20220362410A1, “PREFERRED ANTERIOR CAPSULOTOMY LOCATION PROVIDED BY TRYPAN BLUE OPTHALMIC SOLUTION” (Excel-Lens, Inc., priority 2018, published 2022), which cites them from elsewhere.

Structures are written as SMILES.

In the data set the test system is cell toxicity. Particulars: concentrations above the range 0.2 to 0.45%.

In the case of `Cc1cc(-c2ccc(/N=N/c3c(S(=O)(=O)O)cc4cc(S(=O)(=O)O)cc(N)c4c3O)c(C)c2)ccc1/N=N/c1c(S(=O)(=O)O)cc2cc(S(=O)(=O)O)cc(N)c2c1O` [Trypan Blue], the cell toxicity result is “cell toxicity was noted”.
